This note sets out measurements from publication PMC8286840, “Identifying SARS-CoV-2 antiviral compounds by screening for small molecule inhibitors of Nsp3 papain-like protease” (Biochemical Journal, 2021).

For assay [1], the target named is T1, SARS-CoV-2 PLpro (nsp3 1564–1878) (Severe acute respiratory syndrome coronavirus 2, UniProt P0DTD1). As to the kind of experiment: biochemical. Also on record: FRET-quenched peptide (Pro3) cleavage by PLpro, 10 min pre-incubation, slope over 20 min, normalised to no-compound control. The settings on record: low concentration screen, read-out: % of control remaining.

For assay [2], the target named is T1, SARS-CoV-2 PLpro (nsp3 1564–1878). In words: biochemical. Also on record: FRET-quenched peptide (Pro3) cleavage by PLpro, 10 min pre-incubation, slope over 20 min, normalised to no-compound control. The settings on record: high concentration screen, read-out: % of control remaining.

Structures can show the parent of a compound that is named as a salt. Where two headings read alike, the source gives them in different places.

Regarding `Clc1ccc(COC(Cn2ccnc2)c2ccc(Cl)cc2Cl)c(Cl)c1` (centres unmarked) [Miconazole], the remaining activity at 1.25 µM in assay [1] (Well no.=1965) came to 86.9%. Further, in assay [2] (Well no.=1965), the remaining activity at 3.75 µM came out at 92.2%.
`CC#C[C@]1(O)CC[C@H]2[C@@H]3CCC4=CC(=O)CCC4=C3[C@@H](c3ccc(N(C)C)cc3)C[C@@]21C` [Mifepristone]: the remaining activity at 1.25 µM in assay [1] (Well no.=795) turned out to be 103%; in assay [1] (Well no.=2206), 93.5%; in assay [1] (Well no.=6285), 97.9%. In addition, the values for the remaining activity at 3.75 µM in assay [2] (Well no.=795), in assay [2] (Well no.=2206) and in assay [2] (Well no.=6285) were 96.3%, 97.2% and 99.7%, respectively.
Regarding `OCCN1C[C@H](O)[C@@H](O)[C@H](O)[C@H]1CO` [Miglitol], the remaining activity at 1.25 µM in assay [1] (Well no.=8340) came out at 92.9%. The remaining activity at 3.75 µM in assay [2] (Well no.=8340) stood at 92.7%.
In the case of `CCCCN1C[C@H](O)[C@@H](O)[C@H](O)[C@H]1CO` [Miglustat], the remaining activity at 1.25 µM in assay [1] (Well no.=2252) amounted to 97.5%. Further, the remaining activity at 3.75 µM in assay [2] (Well no.=2252) amounted to 95.8%.
Take `Cc1[nH]c(=O)c(C#N)cc1-c1ccncc1` [Milrinone]: the remaining activity at 1.25 µM was determined as 101% in assay [1] (Well no.=832) and 95.5% in assay [1] (Well no.=2150). Further, the remaining activity at 3.75 µM in assay [2] (Well no.=832) amounted to 101%; in assay [2] (Well no.=2150) it was 97.1%.
For `CCCCCCCCCCCCCCCCOP(=O)([O-])OCC[N+](C)(C)C` [Miltefosine], the remaining activity at 1.25 µM in assay [1] (Well no.=1767) worked out at 101%. The remaining activity at 3.75 µM in assay [2] (Well no.=1767) amounted to 100%.
As for `CN(C)c1ccc(O)c2c1C[C@H]1C[C@H]3[C@H](N(C)C)C(O)=C(C(N)=O)C(=O)[C@@]3(O)C(O)=C1C2=O` [Minocycline hydrochloride], the remaining activity at 1.25 µM in assay [1] (Well no.=797) was determined as 104%. Moreover, the remaining activity at 3.75 µM in assay [2] (Well no.=797) was determined as 102%.
In the case of `CN(C)c1ccc(O)c2c1C[C@H]1C[C@H]3[C@H](N(C)C)C(O)=C(C(N)=O)C(=O)[C@@]3(O)C(O)=C1C2=O` [Minocycline], the remaining activity at 1.25 µM in assay [1] (Well no.=1995) came out at 103%. Further, the remaining activity at 3.75 µM in assay [2] (Well no.=1995) is 103%.
Regarding `Nc1cc(N2CCCCC2)nc(N)[n+]1[O-]` [Minoxidil], the results for the remaining activity at 1.25 µM in assay [1] (Well no.=1070) and in assay [1] (Well no.=1808) were 93.8% and 89.4%, respectively. Further, the remaining activity at 3.75 µM was 96.2% in assay [2] (Well no.=1070) and 90.5% in assay [2] (Well no.=1808).
`Nc1nc(CC(=O)Nc2ccc(CCNC[C@H](O)c3ccccc3)cc2)cs1` [Mirabegron (YM178)]: in assay [1] (Well no.=4652), the remaining activity at 1.25 µM worked out at 99.3%. Moreover, the remaining activity at 3.75 µM in assay [2] (Well no.=4652) stood at 97.1%.
Take `Nc1nc(CC(=O)Nc2ccc(CCNC[C@H](O)c3ccccc3)cc2)cs1` [Mirabegron]: in assay [1] (Well no.=6273), the remaining activity at 1.25 µM came to 107%. Further, the remaining activity at 3.75 µM in assay [2] (Well no.=6273) stood at 116%.
Consider `O=C(O)[C@H]1CCCN1C(=O)CCCCC(=O)N1CCC[C@@H]1C(=O)O` [Miridesap], for which the remaining activity at 1.25 µM in assay [1] (Well no.=8078) is 100%. The remaining activity at 3.75 µM in assay [2] (Well no.=8078) stood at 97.4%.
Turning to `CN1CCN2c3ncccc3Cc3ccccc3C2C1` (centres unmarked) [Mirtazapine], the remaining activity at 1.25 µM in assay [1] (Well no.=6564) came out at 106%. The remaining activity at 3.75 µM in assay [2] (Well no.=6564) came out at 106%.
Consider `CO[C@H](C(=O)[C@@H](O)[C@@H](C)O)[C@@H]1Cc2cc3cc(O[C@H]4C[C@@H](O[C@@H]5C[C@@H](O)[C@H](O)[C@@H](C)O5)[C@H](O)[C@@H](C)O4)c(C)c(O)c3c(O)c2C(=O)[C@H]1O[C@H]1C[C@@H](O[C@@H]2C[C@@H](O)[C@@H](O[C@@H]3C[C@](C)(O)[C@H](O)[C@@H](C)O3)[C@@H](C)O2)[C@H](O)[C@@H](C)O1` [Mithramycin A], for which, in assay [1] (Well no.=3411), the remaining activity at 1.25 µM is 96.9%. In addition, in assay [2] (Well no.=3411), the remaining activity at 3.75 µM came out at 101%.
Take `O=C(O)[C@H](CC(=O)N1C[C@H]2CCCC[C@H]2C1)Cc1ccccc1` [Mitiglinide calcium]: the remaining activity at 1.25 µM in assay [1] (Well no.=4888) amounted to 95.5%. The remaining activity at 3.75 µM in assay [2] (Well no.=4888) came out at 96.8%.
